This data set is classed as physicochemical. The conditions noted are these: pH 7. From the text:
It has been discovered and is believed that the alkali earth metal base, which in some embodiments is part of the nitrile-amide-conversion composition, acts at basic pH values (i.e., at pH values greater than pH 7.0) to undesirably promote degradation of 2,2-dibromo-3-cyanoacetamide to undesirable products. […] As pH of the nitrile-amide-conversion composition becomes increasingly basic, the alkali earth metal base degrades increasing amounts of 2,2-dibromo-3-cyanoacetamide. This base-promoted degradation of 2,2-dibromo-3-cyanoacetamide is especially prevalent at pH 9.0 and higher. The invention process advantageously maintains pH of the reaction mixture in situ during conversion of 2,2-dibromo-3-cyanoacetamide to 2,2-dibromomalonamide in a pH range that minimizes or prevents base-promoted degradation of 2,2-dibromo-3-cyanoacetamide while at the same time facilitates the base-catalyzed conversion thereof to 2,2-dibromomalonamide.

Regarding `NC(=O)C(Br)(Br)C(N)=O` [2,2-dibromomalonamide], the “stability relative to 2,2-dibromo-3-cyanoacetamide” value was at least 10 times.

Values taken from patent US8975441B2, “Process for preparing 2.2-dibromomalonamide” (Dow Global Technologies LLC, priority 2009, dated 2015).
